Measured values: patent US6531496B1 (Bayer Aktiengesellschaft, priority 1999, dated 2003)

assay: logP by HPLC (EEC Directive 79/831 Annex V. A8, gradient method); assay type: physicochemical; details: HPLC, gradient method, acetonitrile/0.1% aqueous phosphoric acid; Table 1

SMILES	logP
COc1cc(C=CN2C(=O)c3ccccc3C2=O)ccc1OC1=NS(=O)(=O)CS1 (mixture of isomers) [Example 79]	2.63
O=[N+]([O-])c1ccc(C=Cc2cccc(OC3=NS(=O)(=O)CS3)c2)c([N+](=O)[O-])c1 (mixture of isomers) [Example 81]	3.22
O=[N+]([O-])c1ccc(C=Cc2cccc(OC3=NS(=O)(=O)CS3)c2[N+](=O)[O-])cc1 (mixture of isomers) [Example 85]	3.28
COc1cc(C=Cc2ccccc2)cc(OC2=NS(=O)(=O)CS2)c1 (mixture of isomers) [Example 87]	3.62
CC(=Cc1cccc(OC2=NS(=O)(=O)CS2)c1)[N+](=O)[O-] (mixture of isomers) [Example 89]	2.46
CC(O)c1cccc(OC2=NS(=O)(=O)CS2)c1 (racemic) [Example 80]	1.48
CCCCCC(O)c1cccc(OC2=NS(=O)(=O)CS2)c1 (racemic) [Example 82]	2.87
CON=C(C1=NOCCO1)c1ccccc1OC1=NS(=O)(=O)CS1 [Example 4]	1.77
COC=C(C(=O)OC)c1ccccc1OC1=NS(=O)(=O)CS1 [Example 5]	2.03
O=S1(=O)CSC(Oc2ccccc2CC2=NOCCO2)=N1 [Example 6]	1.69
COC(=O)C(=NOCC#N)c1ccccc1OC1=NS(=O)(=O)CS1 [Example 7]	1.7
N#CCc1ccccc1OC1=NS(=O)(=O)CS1 [Example 8]	1.68
CON=C(C(=O)NCc1ccccc1)c1ccccc1OC1=NS(=O)(=O)CS1 [Example 9]	2.13
CON=C(C(=O)NOCc1ccccc1)c1ccccc1OC1=NS(=O)(=O)CS1 [Example 10]	2.18
CON=C(C(N)=O)c1ccccc1OC1=NS(=O)(=O)CS1 [Example 11]	1.33
CON=C(C)c1ccc(OC2=NS(=O)(=O)CS2)c(C)c1 [Example 16]	2.88
CCON=C(C)c1ccc(OC2=NS(=O)(=O)CS2)c(C)c1 [Example 17]	3.32

SMILES	logP
CC(=NOCc1ccccc1)c1ccc(OC2=NS(=O)(=O)CS2)c(C)c1 [Example 18]	3.92
CC(C)n1nc(-c2ccc(OC3=NS(=O)(=O)CS3)cc2)ccc1=O [Example 19]	2.15
C=CCON=C(C)c1ccc(OC2=NS(=O)(=O)CS2)cc1 [Example 23]	3.15
CC(=NOCc1ccccc1)c1cccc(OC2=NS(=O)(=O)CS2)c1 [Example 25]	3.67
CON=C(C)c1cc(OC2=NS(=O)(=O)CS2)ccc1OC1=NS(=O)(=O)CS1 [Example 30]	2.43
COC(=O)c1ccc(OC2=NS(=O)(=O)CS2)cc1C(=O)OC [Example 32]	1.93
CC(C)(C)c1cc(OC2=NS(=O)(=O)CS2)ccc1O [Example 34]	2.66
O=S1(=O)CSC(Oc2ccc(-c3nnco3)cc2)=N1 [Example 35]	1.36
CCOC(=O)NN=Cc1cccc(OC2=NS(=O)(=O)CS2)c1 [Example 36]	1.79
N#CC(C#N)=Cc1cccc(OC2=NS(=O)(=O)CS2)c1 [Example 38]	1.59
CC(C)(C)ON=C(c1ccccc1)c1cccc(OC2=NS(=O)(=O)CS2)c1 [Example 43]	4.4
O=S1(=O)CSC(Oc2cccc(C(=NOCc3ccccc3)c3ccccc3)c2)=N1 [Example 44]	4.15
O=S1(=O)CSC(Oc2ccc(-c3nc4ccccc4o3)cc2)=N1 [Example 45]	2.88
O=S1(=O)CSC(Oc2cccc(CO)c2)=N1 [Example 46]	1.23
O=S1(=O)CSC(Oc2ccc(N=Nc3ccccc3)cc2)=N1 [Example 47]	3.47
O=S1(=O)CSC(Oc2ccc(N=Nc3ccccc3)cc2Cl)=N1 [Example 48]	3.96

same assay, conditions: gradient of acetonitrile/0.1% aqueous phosphoric acid; HPLC, gradient method, acetonitrile/0.1% aqueous phosphoric acid; Table 1

SMILES	chromatographic logP
CC(C)(CCl)C(=O)Nc1ccc(OC2=NS(=O)(=O)CS2)c(Cl)c1Cl [Example 13]	2.98
CO/N=C(/C)c1cccc(OC2=NS(=O)(=O)CS2)c1 [Example 26]	2.65
